The results in this text go back to ChEMBL document CHEMBL5543094, “Exploration of P1 and P4 modifications of nirmatrelvir: Design, synthesis, biological evaluation, and X-ray structural studies of SARS-CoV-2 Mpro inhibitors” (Eur J Med Chem, 2024).

Experiment [1] has as its target Replicase polyprotein 1ab (Severe acute respiratory syndrome coronavirus 2, UniProt P0DTD1). Description: Inhibition of N-terminal hexa-histidine tagged SARS-CoV-2 main protease expressed in Escherichia coli BL21 (DE3) using HiLyte Fluor 488TM-ESATLQSGLRKAK-QXL520TM-NH2 as substrate by FRET assay.
The test system of experiment [2] is SARS-CoV-2. Kind of experiment: Antiviral activity against SARS-CoV-2 infected in African green monkey Vero E6 cells assessed as reduction in viral replication pre-infected with cells for 1 hr followed by compound treatment and measured after 3 days by RT-qPCR analysis. The format is functional, organism-based. As to conditions: Severe acute respiratory syndrome coronavirus 2, Vero C1008. (In general: In qPCR the cycle at which signal appears reflects the starting amount.)

Experiment [3] deals with SARS-CoV-2. Kind of experiment: Potency index, ratio of nirmatrelvir EC50 to test compound EC50 for antiviral activity against SARS-CoV-2 infected in African green monkey Vero E6 cells assessed as reduction in viral replication pre-infected with cells for 1 hr followed by compound treatment and measured after 3 days by RT-qPCR analysis. Format: functional, Severe acute respiratory syndrome coronavirus 2. Particulars: time 3 day.

The test system of experiment [4] is SARS-CoV-2. Kind of experiment: Antiviral activity against SARS-CoV-2 WK-521 infected in African green monkey VeroE6/TMPRSS2 cells assessed as reduction in virus infectivity at 10 to 100 uM by immunocytochemistry analysis. Format: functional, organism-based. Particulars: Severe acute respiratory syndrome coronavirus 2, dose 10-100 µM.
In experiment [5] the test system is SARS-CoV-2. Description: Antiviral activity against SARS-CoV-2 WK-521 infected in African green monkey VeroE6/TMPRSS2 cells assessed as reduction in virus infectivity at 1 uM by immunocytochemistry analysis. The format is functional, organism-based. As to conditions: Severe acute respiratory syndrome coronavirus 2.

Activity calls are given as the source filed them. No cut-off for these calls is given here. A value given as a limit tells only on which side of the number the result lay.

A word on the Ki: it is the dissociation constant of the complex between target and ligand, obtained from inhibition or displacement. Broadly, the EC50 is the concentration giving half of the maximal effect. In the case of `CC(C)(C)[C@H](NC(=O)c1ccccc1)C(=O)N1C[C@H]2[C@@H]([C@H]1C(=O)N[C@H](C#N)C[C@@H]1CCNC1=O)C2(C)C`, in experiment [1], the Ki amounted to 36.9 nM. In the experiment with SARS-CoV-2 [2], the EC50 came out at 17000 nM.
`CC(C)(C)[C@H](NC(=O)C(F)(F)F)C(=O)N1C[C@H]2[C@@H]([C@H]1C(=O)N[C@H](C#N)C[C@@H]1CCCNC1=O)C2(C)C` displayed an inhibition constant (Ki) in experiment [1] of 0.04 nM. The EC50 in the experiment on SARS-CoV-2 [2] was determined as 260 nM. Besides, the “Ratio EC50” value in the experiment with SARS-CoV-2 [3] is recorded as 7. Also, the outcome in the experiment on SARS-CoV-2 [4] was Active.
`CC(C)(C)[C@H](NC(=O)C(F)(F)F)C(=O)N1C[C@H]2[C@@H]([C@H]1C(=O)N(C(=O)C(F)(F)F)[C@H](C#N)C[C@@H]1CCNC1=O)C2(C)C` came in with a Ki in experiment [1] of 32300 nM. Besides, the 50% effective concentration (EC50) in the experiment on SARS-CoV-2 [2] turned out to be 100000 nM.
The like results for `CC(C)(C)[C@H](NC(=O)C(Cl)(Cl)Cl)C(=O)N1C[C@H]2[C@@H]([C@H]1C(=O)N[C@H](C#N)C[C@@H]1CCNC1=O)C2(C)C` were, in that order, 0.2 nM and 1600 nM.
In turn, `CC(C)(C)[C@H](NC(=O)OCc1cccnc1)C(=O)N1C[C@H]2[C@@H]([C@H]1C(=O)N[C@H](C#N)C[C@@H]1CCCNC1=O)C2(C)C` gave a Ki in experiment [1] of 0.094 nM. Also, the EC50 in the experiment on SARS-CoV-2 [2] is 3400 nM.
The like results for `CC(C)(C)[C@H](NC(=O)OCc1cccnc1)C(=O)N1C[C@H]2[C@@H]([C@H]1C(=O)N[C@H](C#N)C[C@@H]1CCNC1=O)C2(C)C` were, in that order, 0.09 nM and 35 nM.
Regarding `CC(=O)N[C@H](C(=O)N1C[C@H]2[C@@H]([C@H]1C(=O)N[C@H](C#N)C[C@@H]1CCNC1=O)C2(C)C)C(C)(C)C`, in experiment [1], the inhibition constant Ki was 0.44 nM. For the same molecule, the concentration giving a half-maximal response (EC50) in the experiment on SARS-CoV-2 [2] was 4000 nM.
`CCC(CC)COC(=O)[C@H](C)N[P@](=O)(OC[C@H]1O[C@@](C#N)(c2ccc3c(N)ncnn23)[C@H](O)[C@@H]1O)Oc1ccccc1`: the EC50 in the experiment on SARS-CoV-2 [2] worked out at 3200 nM.
`CC(C)(C)[C@H](NC(=O)OCc1ccccn1)C(=O)N1C[C@H]2[C@@H]([C@H]1C(=O)N[C@H](C#N)C[C@@H]1CCNC1=O)C2(C)C` returned a Ki in experiment [1] of 32.2 nM. For the same molecule, in the experiment on SARS-CoV-2 [2], the EC50 turned out to be 29700 nM.
As to `CC(C)(C)[C@H](NC(=O)C(F)(F)F)C(=O)N1C[C@H]2[C@@H]([C@H]1C(=O)N[C@H](C#N)C[C@@H]1CCNC1=O)C2(C)C`, the outcome with SARS-CoV-2 [4] was Active. In the experiment with SARS-CoV-2 [5], the result was inactive.
The molecule `CC(C)(C)[C@H](NC(=O)OCc1ccccc1)C(=O)N1C[C@H]2[C@@H]([C@H]1C(=O)N[C@H](C#N)C[C@@H]1CCNC1=O)C2(C)C` came in with an inhibition constant Ki in experiment [1] of 0.025 nM. For the same molecule, the EC50 in the experiment with SARS-CoV-2 [2] was found to be 290 nM.
With `CC(C)(C)NC(=O)N[C@H](C(=O)N1C[C@H]2[C@@H]([C@H]1C(=O)N[C@H](C#N)C[C@@H]1CCNC1=O)C2(C)C)C(C)(C)C`, the EC50 in the experiment with SARS-CoV-2 [2] came out at 100000 nM.
Molecule `CC(C)(C)[C@H](NC(=O)OCc1ccncc1)C(=O)N1C[C@H]2[C@@H]([C@H]1C(=O)N[C@H](C#N)C[C@@H]1CCNC1=O)C2(C)C` had a Ki in experiment [1] of 0.49 nM. In addition, the EC50 in the experiment with SARS-CoV-2 [2] amounted to 40100 nM.
`CC(C)(C)C(=O)N[C@H](C(=O)N1C[C@H]2[C@@H]([C@H]1C(=O)N[C@H](C#N)C[C@@H]1CCNC1=O)C2(C)C)C(C)(C)C` displayed a Ki in experiment [1] of 22.1 nM. In addition, the EC50 in the experiment on SARS-CoV-2 [2] is 2300 nM.
Molecule `CC(C)(C)[C@H](NC(=O)C(Cl)(Cl)Cl)C(=O)N1C[C@H]2[C@@H]([C@H]1C(=O)N[C@H](C#N)C[C@@H]1CCCNC1=O)C2(C)C` had an inhibition constant (Ki) in experiment [1] of 1.1 nM. Further, the half-maximal effective concentration (EC50) with SARS-CoV-2 [2] amounted to 270 nM. Besides, in the experiment with SARS-CoV-2 [3], the “Ratio EC50” value is above 7.
On to `CC(C)(C)[C@H](NC(=O)OCc1ccncc1)C(=O)N1C[C@H]2[C@@H]([C@H]1C(=O)N[C@H](C#N)C[C@@H]1CCCNC1=O)C2(C)C`, for which the Ki in experiment [1] came to 7.8 nM. In addition, the EC50 in the experiment with SARS-CoV-2 [2] was 27100 nM.
